According to US6114371A, “3-(cyclohexanoheteroarylidenyl)-2-indolinone protein tyrosine kinase inhibitors” (Sugen, Inc., priority 1998, dated 2000):

What was measured:
EGFr = EGFr (Homo sapiens, UniProt P00533); test: EGF-induced BrdU incorporation assay; type: cell-based; conditions: Table 8
PDGFr [1] = biological target: T1, PDGFr (Homo sapiens, UniProt P09619); test: PDGF-induced BrdU incorporation assay; type: cell-based; parameters: expressed in transfected cells; host or cells: 3T3 cell line
FGFr = test: FGF-induced BrdU incorporation assay; type: cell-based; conditions: Table 8
PDGFr [2] = biological target: T1, PDGFr; test: PDGF-R ELISA; type: cell-based; parameters: cells (U1242, obtained from Joseph Schlessinger, NYU); endogenous in cells; host or cells: U1242
HUV-EC-C cells = test: HUV-EC-C assay, aFGF (3H-thymidine incorporation); type: cell-based, human; conditions: Homo sapiens, Table 9; aFGF (ECGF)-stimulated HUV-EC-C, 3H-thymidine; read-out: aFGF IC50
Procedure: The following protocol may also be used to measure a compound's activity against PDGF-R, FGF-R, VEGF, aFGF or Flk-1/KDR, all of which are naturally expressed by HUV-EC cells.
1. […] After cells have detached from the flask, add an equal volume of assay medium and transfer to a 50 mL sterile centrifuge tube (Fisher Scientific; catalogue no. 05-539-6).
1. Make up two-fold drug titrations in separate 96-well plates, generally 50 μM on down to 0 μM. Use the same assay medium as mentioned in day 0, step 2 above. Titrations are made by adding 90 μl/well of drug at 200 μM (4×the final well concentration) to the top well of a particular plate column. Since the stock drug concentration is usually 20 mM in DMSO, the 200 μM drug concentration contains 2% DMSO.
Therefore, diluent made up to 2% DMSO in assay medium (F12K+0.5% fetal bovine serum) is used as diluent for the drug titrations in order to dilute the drug but keep the DMSO concentration constant. Add this diluent to the remaining wells in the column at 60 μl/well. Take 60 μl from the 120 μl of 200 μM drug dilution in the top well of the column and mix with the 60 μl in the second well of the column. Take 60 μl from this well and mix with the 60 μl in the third well of the column, and so on until two-fold titrations are completed. When the next-to-the-last well is mixed, take 60 μl of the 120 μl in this well and discard it. Leave the last well with 60 μl of DMSO/media diluent as a non-drug-containing control. Make 9 columns of titrated drug, enough for triplicate wells each for 1) VEGF (obtained from Pepro Tech Inc., catalogue no. 100-200, 2) endothelial cell growth factor (ECGF) (also known as acidic fibroblast growth factor, or aFGF) (obtained from Boehringer Mannheim Biochemica, catalogue no. 1439 600); or, 3) human PDGF B/B (1276-956, Boehringer Mannheim, Germany) and assay media control. ECGF comes as a preparation with sodium heparin.
2. Transfer 50 μl/well of the drug dilutions to the 96-well assay plates containing the 0.8-1.0×10^4 cells/100 μl/well of the HUV-EC-C cells from day 0 and incubate ~2 h at 37° C., 5% CO2.
3. In triplicate, add 50 μl/well of […] VEGF, 20 ng/mL ECGF, or media control to each drug condition. As with the drugs, the growth factor concentrations are 4×the desired final concentration. Use the assay media from day 0 step 2 to make the concentrations of growth factors. Incubate approximately 24 hours at 37° C., 5% CO2. Each well will have 50 μl drug dilution, 50 μl growth factor or media, and 100 ul cells, =200 ul/well total. Thus the 4×concentrations of drugs and growth factors become 1× once everything has been added to the wells.
1. Add ^3 H-thymidine (Amersham; catalogue no. TRK-686) at 1 μCi/well (10 μl/well of 100 μCi/mL solution made up in RPMI media+10% heat-inactivated fetal bovine serum) and incubate ~24 h at 37° C., 5% CO2. RPMI is obtained from Gibco BRL, catalogue no. 11875-051.
1. Thaw plates and harvest with a 96-well plate harvester (Tomtec Harvester 96®) onto filter mats (Wallac; catalogue no. 1205-401); read counts on a Wallac Betaplate™ liquid scintillation counter.
(§1) The IC50 values were measured for several of the compounds of the invention.

[3] = biological target: Myc-GyrB-FGFR fusion protein; test: Assay measuring the kinase activity of the FGF receptor (Myc-GyrB-FGFR fusion protein); type: biochemical; conditions: Table 5; 7 μM ATP
Procedure: The following protocol describes the reagents and procedures used to analyze protein tyrosine kinase activity of the Myc-GyrB-FGFR fusion protein.
5. Add 15 μg COS/FGFR cell lysate Myc-GyrB-FGFR sources per well in HNTG for a final volume of 100 μL per well. Incubate while shaking on a micro-liter plate shaker at room temperature for 2 hours.
9. At this point diluted Compounds/Extracts are added to the ELISA plate. Transfer 10 μL of diluted test and control wells from the polypropylene plate wells to the corresponding ELISA plate wells. Incubate while shaking on a micro-liter plate shaker at room temperature for 20 minutes.
10. Add 10 μL of 70 μM ATP diluted in kinase buffer to positive control and test wells (Final ATP concentration is 7 μM/well.) Add 10 μL of 1×kinase buffer to negative control wells. Incubate while shaking on a micro-liter plate shaker at room temperature for 15 min.
22. Read assay on Dynatech MR7000 ELISA Plate Reader.
as §1

lck protein kinase = biological target: T2, lck protein kinase (Homo sapiens, UniProt P06239); test: Biochemical lck assay - ELISA; conditions: Table 7; 10 μM ATP, GST-zeta substrate
T2 construct: made in house; host or cells: Schizosaccharomyces pombe strain SP200 (lysate)
Procedure: This assay is used to determine lck protein kinase activities measuring phosphorylation of GST-.zeta. as the readout.
(§2) b. Yeast transformed with lck. […] S. Pombe strain SP200 (h-s leul.32 ura4 ade210) is grown as described and transformations with pRSP expression plasmids are done by the lithium acetate method (Superti-Furga, supra). Cells are grown in the presence of 1 μM thiamine to induce expression.
2. Add 0.08 mL Kinase Reaction Mixture per well (containing 10 μl of 10×Kinase Buffer and 2 μg GST-.zeta. per well diluted with water).
(§3) 3. Add 10 μL of compound diluted in water containing 10% DMSO and pre-incubate for 15 minutes at room temperature.
4. Start kinase reaction by adding 10 μL/well of 0.1 mM ATP in water (10 μM ATP final).
The IC50 values were measured for one of the compounds of the invention.

src protein kinase = biological target: T3, src protein kinase (Gallus gallus, UniProt P00523); test: Biochemical src assay - ELISA; conditions: Table 6; 5 μM ATP, biotinylated peptide substrate
T3 construct: made in house; host or cells: Schizosaccharomyces pombe (yeast transformed with src, lysate)
Procedure: This assay is used to determine src protein kinase activity measuring phosphorylation of a biotinylated peptide as the readout.
as §2, with “h.” for “b. Yeast transformed with lck.”, “are” for “with”, “to repress expression from the nmtl promoter or in the absence of thiamine to” for “to”
2. Add 0.08 mL Kinase Reaction Mixture per well (containing 10 μL of 10×Kinase Buffer and 10 μM (final concentration) biotin-[…] per well diluted in water.
as §3
4. Start kinase reaction by adding 10 μL/well of 0.05 mM ATP in water (5 μM ATP final).
as §1

FLK-1 receptor = biological target: T4, FLK-1 receptor (Mus musculus, UniProt P35918); test: FLK-1 ELISA (kinase activity of the FLK-1 receptor in engineered cells); type: cell-based; conditions: Table 3; VEGF-stimulated NIH3T3 C7#3 cells; read-out: FLK-1 IC50
T4 construct: expressed in transfected cells; host or cells: NIH3T3 C7#3 cells

[4] = Table 8, BrdU incorporation, 3.8 nM PDGF, read-out: PDGFr IC50
[5] = Table 4, ligand-stimulated U1242 cells, read-out: PDGF-R IC50

T1 sequence (P09619 33-1106): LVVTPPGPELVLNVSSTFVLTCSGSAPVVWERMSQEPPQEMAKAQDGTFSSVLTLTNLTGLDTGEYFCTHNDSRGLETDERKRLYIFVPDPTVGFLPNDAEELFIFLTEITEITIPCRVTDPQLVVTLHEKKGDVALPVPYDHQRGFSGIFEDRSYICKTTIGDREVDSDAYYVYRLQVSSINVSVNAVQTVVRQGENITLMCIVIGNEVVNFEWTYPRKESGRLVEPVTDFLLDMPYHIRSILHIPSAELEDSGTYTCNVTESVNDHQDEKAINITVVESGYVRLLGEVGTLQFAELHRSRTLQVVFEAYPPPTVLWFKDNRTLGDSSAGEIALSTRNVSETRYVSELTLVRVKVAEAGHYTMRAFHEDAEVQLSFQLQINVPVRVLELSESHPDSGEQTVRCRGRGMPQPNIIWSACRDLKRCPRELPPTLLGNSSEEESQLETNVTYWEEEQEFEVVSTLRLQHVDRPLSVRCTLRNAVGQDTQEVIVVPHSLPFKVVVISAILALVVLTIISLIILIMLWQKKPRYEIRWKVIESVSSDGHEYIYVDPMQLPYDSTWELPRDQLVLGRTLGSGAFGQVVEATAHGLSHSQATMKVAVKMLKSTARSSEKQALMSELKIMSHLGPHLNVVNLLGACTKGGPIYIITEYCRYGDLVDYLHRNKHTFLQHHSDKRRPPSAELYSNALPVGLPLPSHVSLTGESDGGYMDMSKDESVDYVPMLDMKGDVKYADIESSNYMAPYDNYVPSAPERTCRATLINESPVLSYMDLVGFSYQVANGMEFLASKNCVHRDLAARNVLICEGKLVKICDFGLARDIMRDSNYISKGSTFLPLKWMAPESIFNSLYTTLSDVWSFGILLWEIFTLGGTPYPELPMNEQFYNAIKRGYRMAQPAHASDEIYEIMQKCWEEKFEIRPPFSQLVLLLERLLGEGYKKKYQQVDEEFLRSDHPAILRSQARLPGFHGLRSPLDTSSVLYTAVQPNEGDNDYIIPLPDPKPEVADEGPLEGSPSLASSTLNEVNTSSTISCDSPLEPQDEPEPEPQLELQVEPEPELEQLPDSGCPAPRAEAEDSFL
EGFr, sequence (P00533 25-1210): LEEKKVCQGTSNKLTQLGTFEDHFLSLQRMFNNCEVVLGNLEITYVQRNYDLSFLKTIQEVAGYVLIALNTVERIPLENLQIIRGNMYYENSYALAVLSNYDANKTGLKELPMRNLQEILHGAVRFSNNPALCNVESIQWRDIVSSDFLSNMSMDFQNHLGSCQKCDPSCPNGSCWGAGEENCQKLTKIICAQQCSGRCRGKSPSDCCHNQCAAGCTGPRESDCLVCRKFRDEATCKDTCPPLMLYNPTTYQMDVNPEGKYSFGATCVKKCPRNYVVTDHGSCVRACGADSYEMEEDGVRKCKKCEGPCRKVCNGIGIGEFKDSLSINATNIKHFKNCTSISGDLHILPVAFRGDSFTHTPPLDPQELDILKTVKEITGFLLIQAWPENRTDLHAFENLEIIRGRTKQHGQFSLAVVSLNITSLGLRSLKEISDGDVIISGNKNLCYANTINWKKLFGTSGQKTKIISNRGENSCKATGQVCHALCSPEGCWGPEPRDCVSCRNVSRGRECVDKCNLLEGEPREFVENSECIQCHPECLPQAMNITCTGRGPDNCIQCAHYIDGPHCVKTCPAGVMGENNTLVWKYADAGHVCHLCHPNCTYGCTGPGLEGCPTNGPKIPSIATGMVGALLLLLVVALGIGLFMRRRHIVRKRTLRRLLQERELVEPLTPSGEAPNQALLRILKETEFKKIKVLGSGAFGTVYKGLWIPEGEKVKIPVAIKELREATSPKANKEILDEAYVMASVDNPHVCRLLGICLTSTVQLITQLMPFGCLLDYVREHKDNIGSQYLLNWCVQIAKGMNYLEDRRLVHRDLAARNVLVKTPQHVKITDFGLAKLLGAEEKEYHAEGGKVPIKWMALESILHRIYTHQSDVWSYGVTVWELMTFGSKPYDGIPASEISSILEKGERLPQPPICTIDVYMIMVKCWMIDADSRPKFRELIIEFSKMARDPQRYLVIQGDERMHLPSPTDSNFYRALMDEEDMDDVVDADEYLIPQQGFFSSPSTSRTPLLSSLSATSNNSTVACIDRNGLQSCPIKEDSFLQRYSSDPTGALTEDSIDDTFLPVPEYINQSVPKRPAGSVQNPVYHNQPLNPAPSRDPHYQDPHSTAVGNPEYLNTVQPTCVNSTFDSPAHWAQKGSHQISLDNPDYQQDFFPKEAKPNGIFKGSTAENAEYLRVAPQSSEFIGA
T4 sequence (P35918 20-1345): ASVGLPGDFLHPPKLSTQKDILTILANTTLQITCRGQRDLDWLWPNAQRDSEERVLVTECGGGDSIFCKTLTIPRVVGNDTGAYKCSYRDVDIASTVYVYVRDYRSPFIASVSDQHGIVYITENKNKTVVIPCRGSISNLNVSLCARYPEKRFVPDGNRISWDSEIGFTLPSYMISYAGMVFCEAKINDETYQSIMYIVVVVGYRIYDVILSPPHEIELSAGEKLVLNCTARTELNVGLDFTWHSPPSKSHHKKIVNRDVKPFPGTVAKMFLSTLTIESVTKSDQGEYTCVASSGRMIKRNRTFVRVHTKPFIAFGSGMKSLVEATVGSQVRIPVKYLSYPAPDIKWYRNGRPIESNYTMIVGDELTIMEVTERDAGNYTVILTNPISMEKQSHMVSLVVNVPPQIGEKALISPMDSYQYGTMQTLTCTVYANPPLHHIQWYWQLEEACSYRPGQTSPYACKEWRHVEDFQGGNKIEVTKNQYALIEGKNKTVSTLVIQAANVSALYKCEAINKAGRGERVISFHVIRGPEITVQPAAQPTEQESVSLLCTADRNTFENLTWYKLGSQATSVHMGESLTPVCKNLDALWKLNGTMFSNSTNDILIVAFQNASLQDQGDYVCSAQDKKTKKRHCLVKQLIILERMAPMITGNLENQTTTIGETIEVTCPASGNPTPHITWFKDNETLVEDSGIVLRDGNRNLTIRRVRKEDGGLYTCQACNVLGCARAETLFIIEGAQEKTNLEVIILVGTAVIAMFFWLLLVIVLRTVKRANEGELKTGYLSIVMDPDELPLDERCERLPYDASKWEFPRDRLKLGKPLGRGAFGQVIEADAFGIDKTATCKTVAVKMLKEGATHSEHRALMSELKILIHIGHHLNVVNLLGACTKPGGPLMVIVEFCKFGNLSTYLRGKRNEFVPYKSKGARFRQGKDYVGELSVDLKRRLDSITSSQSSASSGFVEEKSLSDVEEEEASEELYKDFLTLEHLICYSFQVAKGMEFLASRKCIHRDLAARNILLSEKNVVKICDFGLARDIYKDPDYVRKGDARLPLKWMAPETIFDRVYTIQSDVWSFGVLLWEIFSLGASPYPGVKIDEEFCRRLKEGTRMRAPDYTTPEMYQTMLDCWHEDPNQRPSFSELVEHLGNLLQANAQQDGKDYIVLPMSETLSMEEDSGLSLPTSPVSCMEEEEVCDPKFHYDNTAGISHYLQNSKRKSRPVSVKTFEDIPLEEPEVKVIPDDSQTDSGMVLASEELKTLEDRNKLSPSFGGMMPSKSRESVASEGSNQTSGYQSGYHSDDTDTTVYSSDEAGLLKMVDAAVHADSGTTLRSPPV
T2 sequence (P06239 whole entry): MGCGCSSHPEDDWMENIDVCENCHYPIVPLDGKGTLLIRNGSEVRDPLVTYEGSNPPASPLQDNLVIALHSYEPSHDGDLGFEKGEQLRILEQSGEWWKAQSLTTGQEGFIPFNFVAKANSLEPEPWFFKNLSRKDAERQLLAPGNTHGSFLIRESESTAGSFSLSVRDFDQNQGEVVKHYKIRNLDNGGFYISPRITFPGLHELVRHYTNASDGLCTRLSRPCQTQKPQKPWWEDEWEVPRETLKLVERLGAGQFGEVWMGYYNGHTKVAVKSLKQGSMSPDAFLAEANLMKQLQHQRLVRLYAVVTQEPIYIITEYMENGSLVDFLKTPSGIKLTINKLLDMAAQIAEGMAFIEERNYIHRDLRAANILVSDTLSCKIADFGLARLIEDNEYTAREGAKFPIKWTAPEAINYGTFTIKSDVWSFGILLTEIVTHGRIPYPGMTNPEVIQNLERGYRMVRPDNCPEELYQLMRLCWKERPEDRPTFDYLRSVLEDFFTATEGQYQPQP

IC50 (FLK-1 receptor) [µM]	Structure (SMILES)	IC50 (EGFr) [µM]	IC50 (PDGFr [1]; [4]) [µM]	IC50 (FGFr) [µM]	IC50 (PDGFr [2]; [5]) [µM]	IC50 (HUV-EC-C cells) [µM]	IC50 [3] [µM]	IC50 (lck protein kinase) [µM]	IC50 (src protein kinase) [µM]	IC50 (PDGFr [1]) [µM]	IC50 (PDGFr [2]) [µM]
–	CCOc1cccc(-c2ccc3c(c2)NC(=O)C3=Cc2cc3c([nH]2)CCCC3)c1 [6-(3-ethoxyphenyl)-3-(4,5,6,7-tetrahydro-1H-indol-2-ylmethylene)-1,3-dihydro-indol-2-one]	> 50	> 50	> 50	> 100	> 25	> 20	–	–	–	–
–	CC(=O)c1ccc2c(c1)C(=Cc1cc3c([nH]1)CCCC3)C(=O)N2 [5-acetyl-3-(4,5,6,7-tetrahydro-1H-indol-2-ylmethylene)-1,3-dihydro-indol-2-one]	36.5	> 0.07	> 50	> 100	28.8	> 20	> 100	17.8	–	–
–	COc1ccccc1-c1ccc2c(c1)NC(=O)C2=Cc1[nH]c2c(c1C)CCCC2 [6-(2-methoxyphenyl)-3-(3-methyl-4,5,6,7-tetrahydro-1H-indol-2-ylmethylene)-1,3-dihydro-indol-2-one]	> 50	> 50	> 50	95.7	> 12.5	> 100	–	–	–	–
> 2.5	Cc1cc(Br)c2c(c1)C(=Cc1cc3c([nH]1)CCCC3)C(=O)N2 [7-bromo-5-methyl-3-(4,5,6,7-tetrahydro-1H-indol-2-ylmethylene)-1,3-dihydro-indol-2-one]	–	–	–	5.56	–	–	–	–	–	–
> 20	COc1cccc(-c2ccc3c(c2)NC(=O)C3=Cc2cc3c([nH]2)CCCC3)c1 [6-(3-methoxyphenyl)-3-(4,5,6,7-tetrahydro-1H-indol-2-ylmethylene)-1,3-dihydro-indol-2-one]	31.8	> 50	> 50	> 100	> 50	–	–	–	–	–
–	COc1ccc2c(c1)NC(=O)C2=Cc1cc2c([nH]1)CCCC2 [6-methoxy-3-(4,5,6,7-tetrahydro-1H-indol-2-ylmethylene)-1,3-dihydro-indol-2-one]	> 50	–	> 50	–	–	–	–	–	–	–
–	COc1ccccc1-c1ccc2c(c1)NC(=O)C2=Cc1cc2c([nH]1)CCCC2 [6-(2-methoxyphenyl)-3-(4,5,6,7-tetrahydro-1H-indol-2-ylmethylene)-1,3-dihydro-indol-2-one]	34.1	–	43.6	–	14.6	> 100	–	–	1.06	12.3
–	COc1ccc(-c2ccc3c(c2)NC(=O)C3=Cc2[nH]c3c(c2C)CCCC3)cc1 [6-(4-methoxyphenyl)-3-(3-methyl-4,5,6,7-tetrahydro-1H-indol-2-ylmethylene)-1,3-dihydro-indol-2-one]	> 50	> 50	> 50	> 100	> 50	> 100	–	–	–	–
17.1	O=C1Nc2cc(O)ccc2C1=Cc1cc2c([nH]1)CCCC2 [6-hydroxy-3-(4,5,6,7-tetrahydro-1H-indol-2-ylmethylene)-1,3-dihydro-indol-2-one]	12.6	0.51	6.21	47.2	–	–	–	21	–	–
–	COc1ccc(-c2ccc3c(c2)NC(=O)C3=Cc2cc3c([nH]2)CCCC3)cc1 [6-(4-methoxyphenyl)-3-(4,5,6,7-tetrahydro-1H-indol-2-ylmethylene)-1,3-dihydro-indol-2-one]	> 50	–	> 50	–	> 12.5	> 100	–	–	> 50	94
–	O=C1Nc2cc(Cl)ccc2C1=Cc1cc2c([nH]1)CCCC2 [6-chloro-3-(4,5,6,7-tetrahydro-1H-indol-2-ylmethylene)-1,3-dihydro-indol-2-one]	–	–	–	> 100	–	> 20	–	–	–	–
–	O=C1Nc2cc(Br)ccc2C1=Cc1cc2c([nH]1)CCCC2 [6-bromo-3-(4,5,6,7-tetrahydro-1H-indol-2-ylmethylene)-1,3-dihydro-indol-2-one]	–	–	–	> 100	–	> 20	–	–	–	–
–	O=C1Nc2cc(-c3ccccc3)ccc2C1=Cc1cc2c([nH]1)CCCC2 [6-phenyl-3-(4,5,6,7-tetrahydro-1H-indol-2-ylmethylene)-1,3-dihydro-indol-2-one]	> 50	> 50	> 50	70.6	> 12.5	> 100	–	–	–	–

Structure (SMILES)	IC50 (FLK-1 receptor) [µM]	IC50 (EGFr) [µM]	IC50 (PDGFr [1]; [4]) [µM]	IC50 (FGFr) [µM]	IC50 (PDGFr [2]; [5]) [µM]	IC50 (HUV-EC-C cells) [µM]	IC50 [3] [µM]	IC50 (lck protein kinase) [µM]	IC50 (src protein kinase) [µM]	IC50 (PDGFr [1]) [µM]	IC50 (PDGFr [2]) [µM]
Cc1c(C=C2C(=O)Nc3cc(Br)ccc32)[nH]c2c1CCCC2 [6-bromo-3-(3-methyl-4,5,6,7-tetrahydro-1H-indol-2-ylmethylene)-1,3-dihydro-indol-2-one]	2.19	–	–	–	40	–	> 20	–	–	–	–
COc1cccc(-c2ccc3c(c2)NC(=O)C3=Cc2[nH]c3c(c2C)CCCC3)c1 [6-(3-methoxyphenyl)-3-(3-methyl-4,5,6,7-tetrahydro-1H-indol-2-ylmethylene)-1,3-dihydro-indol-2-one]	> 5	–	–	–	5.83	–	> 20	–	–	–	–
